Source: patent publication US20050272040A1, “Method for increasing synaptic growth or plasticity” (priority 2002, published 2005)

Test system: Hippocampal neurons
Test: Western blot of VGF protein after BDNF treatment
Assay type: cell-based, rat
Text: The products of the genes induced following learning may regulate neuronal plasticity at the single-cell level. VGF, like BDNF, is a secreted polypeptide and thus may be relevant for intercellular communication. A functional role for VGF in synaptic plasticity was thus investigated. To determine whether BDNF-induced transcriptional changes of VGF were accompanied by translational alterations, VGF levels were examined following BDNF treatment by western blot analysis. VGF, migrating as a doublet with an apparent molecular weight of 85-90 kD, increased by 1.5-fold within 3 hours of BDNF exposure. VGF protein levels were maximal at 12 hours and remained elevated for 48 hours of continuous BDNF application. Consequently, increased VGF mRNA levels after 3 hours BDNF treatment were associated with enhanced protein translation. VGF protein processing occurs in both neurons and neuroendocrine cells (Trani et al. (1995) J. Neurochem. 65:2441-2449; Salton et al. (2000) supra). The localization of VGF in dissociated hippocampal cultures was examined using a C-terminal antibody (R-15) which labeled both the soma and neurites indicating translocation to the neuronal processes. The expression of VGF was similar to that previously observed in primary neuronal cultures (Benson and Salton (1996) Brain Res. Dev. Brain Res. 96:219-228) and was punctate in appearance. This pattern is consistent with the regulated release of VGF from large dense core vesicles (Trani et al. (1995) supra; Benson and Salton (1996) supra; Possenti et al. (1999) Endocrinology 140:3727-3735) and indicates a physiological role for the peptide.
BDNF-treated and untreated hippocampal neurons plated in equal numbers were solubilized in lysis buffer (20 mM Tris pH 8, 0.5% Triton X-100, 0.5% SDS, protease inhibitor tablet, 1 mM PMSF, and 0.5 mM vanadate). The protein content was determined with the BCA protein assay kit (Pierce Chemical Co, Rockford, Ill.). […] The immunopositive bands were visualized by chemiluminescence using the ECL™ detection kit (NEN, Boston, Mass.), quantitated on a BIO-RAD Gel Doc and normalized to actin.

## BDNF: neurotrophin, 50 ng/ml, Preprotech; induces synaptic plasticity in hippocampal neurons
Continuous BDNF application
  Time VGF protein levels remained elevated: 48 h
  Time of maximal VGF protein levels: 12 h
Within 3 hours of BDNF exposure, western blot
  Increase in VGF protein: 1.5 fold
